{"source": "patent US8129417B2", "about": "“Substituted octahydrocyclopenta[C]pyrrol-4-amines as calcium channel blockers” (Abbott Laboratories, priority 2008, dated 2012)", "note": "pIC50: −log10 of the molar value.", "data": [{"target": "human Cav2.2 (Homo sapiens, UniProt Q00975)", "sequence (Q00975 whole entry)": "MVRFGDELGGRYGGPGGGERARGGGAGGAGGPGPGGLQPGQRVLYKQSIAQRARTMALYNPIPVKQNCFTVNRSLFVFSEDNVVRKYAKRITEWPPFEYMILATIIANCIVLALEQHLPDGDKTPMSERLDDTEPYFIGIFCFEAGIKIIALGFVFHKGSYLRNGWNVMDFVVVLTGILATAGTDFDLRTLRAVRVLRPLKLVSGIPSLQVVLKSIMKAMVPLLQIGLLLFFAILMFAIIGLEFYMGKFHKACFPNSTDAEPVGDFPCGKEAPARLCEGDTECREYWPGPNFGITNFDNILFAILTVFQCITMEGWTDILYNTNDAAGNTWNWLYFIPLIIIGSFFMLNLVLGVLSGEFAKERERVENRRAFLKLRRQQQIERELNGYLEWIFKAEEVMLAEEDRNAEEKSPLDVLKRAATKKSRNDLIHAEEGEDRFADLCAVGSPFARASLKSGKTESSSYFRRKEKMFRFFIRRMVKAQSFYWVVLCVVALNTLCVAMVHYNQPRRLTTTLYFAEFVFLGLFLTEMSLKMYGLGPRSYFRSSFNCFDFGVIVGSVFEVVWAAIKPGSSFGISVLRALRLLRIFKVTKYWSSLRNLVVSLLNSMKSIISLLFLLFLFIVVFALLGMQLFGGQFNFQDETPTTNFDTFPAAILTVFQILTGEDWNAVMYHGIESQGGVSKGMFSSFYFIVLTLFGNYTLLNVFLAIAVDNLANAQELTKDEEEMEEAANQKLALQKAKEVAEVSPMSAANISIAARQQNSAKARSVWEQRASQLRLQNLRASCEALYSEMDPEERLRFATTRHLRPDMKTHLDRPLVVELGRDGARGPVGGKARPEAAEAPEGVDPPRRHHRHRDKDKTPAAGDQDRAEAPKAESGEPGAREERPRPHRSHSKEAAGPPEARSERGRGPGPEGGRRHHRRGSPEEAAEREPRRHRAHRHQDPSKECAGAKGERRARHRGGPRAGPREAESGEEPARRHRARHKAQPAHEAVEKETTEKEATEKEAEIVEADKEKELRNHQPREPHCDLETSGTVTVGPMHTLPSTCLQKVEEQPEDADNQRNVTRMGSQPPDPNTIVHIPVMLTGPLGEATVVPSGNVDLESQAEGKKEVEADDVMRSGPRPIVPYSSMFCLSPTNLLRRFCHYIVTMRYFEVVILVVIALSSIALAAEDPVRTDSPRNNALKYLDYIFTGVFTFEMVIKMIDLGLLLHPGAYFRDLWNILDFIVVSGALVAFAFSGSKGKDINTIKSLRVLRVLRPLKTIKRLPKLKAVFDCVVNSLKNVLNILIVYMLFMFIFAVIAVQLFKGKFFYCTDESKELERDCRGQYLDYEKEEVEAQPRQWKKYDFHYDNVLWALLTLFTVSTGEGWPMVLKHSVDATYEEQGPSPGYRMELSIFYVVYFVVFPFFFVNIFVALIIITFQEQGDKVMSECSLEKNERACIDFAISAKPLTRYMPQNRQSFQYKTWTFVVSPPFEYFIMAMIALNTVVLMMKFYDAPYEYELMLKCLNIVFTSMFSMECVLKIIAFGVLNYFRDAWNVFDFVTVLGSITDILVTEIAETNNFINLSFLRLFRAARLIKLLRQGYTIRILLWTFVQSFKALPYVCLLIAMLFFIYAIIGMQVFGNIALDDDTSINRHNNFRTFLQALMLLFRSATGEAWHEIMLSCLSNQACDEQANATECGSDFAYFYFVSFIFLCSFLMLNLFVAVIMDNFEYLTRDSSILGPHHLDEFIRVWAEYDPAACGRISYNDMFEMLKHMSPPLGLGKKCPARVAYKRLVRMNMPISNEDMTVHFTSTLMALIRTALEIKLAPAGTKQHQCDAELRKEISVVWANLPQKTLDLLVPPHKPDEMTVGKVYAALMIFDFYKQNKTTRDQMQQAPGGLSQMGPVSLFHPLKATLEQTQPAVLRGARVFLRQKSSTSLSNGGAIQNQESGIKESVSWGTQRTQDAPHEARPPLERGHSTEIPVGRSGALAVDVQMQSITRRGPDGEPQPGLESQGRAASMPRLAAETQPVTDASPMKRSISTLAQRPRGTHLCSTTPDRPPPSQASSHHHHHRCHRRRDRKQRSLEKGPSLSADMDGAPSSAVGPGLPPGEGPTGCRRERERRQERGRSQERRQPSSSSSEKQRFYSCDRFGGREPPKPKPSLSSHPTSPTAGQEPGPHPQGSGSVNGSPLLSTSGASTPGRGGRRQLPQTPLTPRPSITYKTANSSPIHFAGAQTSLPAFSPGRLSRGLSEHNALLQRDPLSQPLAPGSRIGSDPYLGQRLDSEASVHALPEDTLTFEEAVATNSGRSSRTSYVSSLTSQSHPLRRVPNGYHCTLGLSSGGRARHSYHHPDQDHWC", "sequence (P54289 25-946 partner limits assumed)": "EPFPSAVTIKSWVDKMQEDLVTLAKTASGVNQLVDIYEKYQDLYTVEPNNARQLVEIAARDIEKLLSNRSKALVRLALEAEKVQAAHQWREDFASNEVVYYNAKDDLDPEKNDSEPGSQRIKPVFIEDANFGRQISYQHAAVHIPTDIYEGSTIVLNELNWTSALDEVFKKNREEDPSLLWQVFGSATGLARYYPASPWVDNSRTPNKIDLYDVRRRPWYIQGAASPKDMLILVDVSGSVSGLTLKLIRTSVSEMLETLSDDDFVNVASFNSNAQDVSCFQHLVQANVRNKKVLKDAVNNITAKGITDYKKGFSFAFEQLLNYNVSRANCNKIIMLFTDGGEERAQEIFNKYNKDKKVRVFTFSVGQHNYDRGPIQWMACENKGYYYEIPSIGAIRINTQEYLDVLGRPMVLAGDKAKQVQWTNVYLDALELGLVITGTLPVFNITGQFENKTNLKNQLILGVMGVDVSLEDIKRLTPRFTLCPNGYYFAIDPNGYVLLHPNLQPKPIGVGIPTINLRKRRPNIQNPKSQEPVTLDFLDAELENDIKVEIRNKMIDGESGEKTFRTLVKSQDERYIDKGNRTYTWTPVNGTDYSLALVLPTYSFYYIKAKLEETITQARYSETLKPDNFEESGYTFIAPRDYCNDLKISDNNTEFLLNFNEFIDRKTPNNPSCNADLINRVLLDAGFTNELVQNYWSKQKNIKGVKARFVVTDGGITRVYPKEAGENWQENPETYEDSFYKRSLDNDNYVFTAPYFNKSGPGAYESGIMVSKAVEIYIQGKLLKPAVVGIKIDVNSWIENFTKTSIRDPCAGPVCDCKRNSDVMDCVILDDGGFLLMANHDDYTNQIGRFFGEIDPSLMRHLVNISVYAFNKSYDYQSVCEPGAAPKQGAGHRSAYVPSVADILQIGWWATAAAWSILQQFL", "sequence (P54289 947-1103 partner limits assumed)": "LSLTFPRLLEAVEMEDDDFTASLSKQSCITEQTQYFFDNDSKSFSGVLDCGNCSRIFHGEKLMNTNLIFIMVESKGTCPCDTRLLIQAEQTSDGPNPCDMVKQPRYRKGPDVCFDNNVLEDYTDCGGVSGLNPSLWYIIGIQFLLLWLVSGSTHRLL", "sequence (P54284 whole entry partner)": "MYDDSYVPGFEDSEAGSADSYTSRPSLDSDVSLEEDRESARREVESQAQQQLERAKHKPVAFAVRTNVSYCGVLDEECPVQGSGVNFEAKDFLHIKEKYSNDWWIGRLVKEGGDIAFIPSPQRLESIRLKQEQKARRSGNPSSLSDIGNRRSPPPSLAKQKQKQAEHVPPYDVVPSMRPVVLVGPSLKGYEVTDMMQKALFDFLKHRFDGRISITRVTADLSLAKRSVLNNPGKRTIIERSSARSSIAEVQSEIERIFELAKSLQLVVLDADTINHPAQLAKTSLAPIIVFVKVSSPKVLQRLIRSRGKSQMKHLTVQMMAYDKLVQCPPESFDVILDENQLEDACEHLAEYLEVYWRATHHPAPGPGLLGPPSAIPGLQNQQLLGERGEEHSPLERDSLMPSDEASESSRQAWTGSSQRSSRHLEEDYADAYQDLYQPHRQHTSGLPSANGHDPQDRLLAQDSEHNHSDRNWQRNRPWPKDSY", "test": "Assessment of calcium channel activity using FLIPR (Ca2+ influx in IMR32 cells)", "assay_type": "cell-based", "settings": "60 minute pre-incubation with compound, 2 μM nifedipine, depolarized with 80 mM KCl", "how_it_was_run": "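IMR32 neuroblastoma cells seeded at 1-1.2×10^5 cells/well and grown 48 h at 37 °C before FLIPR Ca2+ influx read. Percent inhibition at each concentration vs no-inhibitor activity; IC50 by non-linear sigmoidal dose-response fit.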", "values": [{"smiles": "CC(C)(C)C[C@H](N)C(=O)N[C@H]1CC[C@@H]2CN(c3cccc(C(F)(F)F)n3)C[C@@H]21", "note": "[Example 441, 4-methyl-N^1-{(3aR,4S,6aS)-2-[6-(trifluoromethyl)pyridin-2-yl]octahydrocyclopenta[c]pyrrol-4-yl}-L-leucinamide]", "pIC50": 6.43}, {"smiles": "CN[C@@H](CC(C)C)C(=O)N[C@@H]1CC[C@H]2CN(S(=O)(=O)c3cccc(F)c3)C[C@H]21", "note": "[Example 443, N^1-{(3aS,4R,6aR)-2-[(3-fluorophenyl)sulfonyl]octahydrocyclopenta[c]pyrrol-4-yl}-N^2-methyl-L-leucinamide]", "pIC50": 5.11}, {"smiles": "CN[C@@H](CC(C)C)C(=O)N[C@@H]1CC[C@H]2CN(S(=O)(=O)c3ccc(F)cc3)C[C@H]21", "note": "[Example 444, N^1-{(3aS,4R,6aR)-2-[(4-fluorophenyl)sulfonyl]octahydrocyclopenta[c]pyrrol-4-yl}-N^2-methyl-L-leucinamide]", "pIC50": 5.68}, {"smiles": "CN[C@@H](CC(C)C)C(=O)N[C@@H]1CC[C@H]2CN(S(=O)(=O)c3ccc(F)c(F)c3)C[C@H]21", "note": "[Example 445, N^1-{(3aS,4R,6aR)-2-[(3,4-difluorophenyl)sulfonyl]octahydrocyclopenta[c]pyrrol-4-yl}-N^2-methyl-L-leucinamide]", "pIC50": 5.10}, {"smiles": "CN[C@@H](CC(C)C)C(=O)N[C@@H]1CC[C@H]2CN(S(=O)(=O)c3cc(F)cc(F)c3)C[C@H]21", "note": "[Example 446, N^1-{(3aS,4R,6aR)-2-[(3,5-difluorophenyl)sulfonyl]octahydrocyclopenta[c]pyrrol-4-yl}-N^2-methyl-L-leucinamide]", "pIC50": 5.30}, {"smiles": "CN[C@@H](CC(C)C)C(=O)N[C@@H]1CC[C@H]2CN(S(=O)(=O)c3ccc(Cl)cc3)C[C@H]21", "note": "[Example 447, N^1-{(3aS,4R,6aR)-2-[(4-chlorophenyl)sulfonyl]octahydrocyclopenta[c]pyrrol-4-yl}-N^2-methyl-L-leucinamide]", "pIC50": 5.57}, {"smiles": "CN[C@@H](CC(C)C)C(=O)N[C@@H]1CC[C@H]2CN(Cc3ccc(C(F)(F)F)cc3)C[C@H]21", "note": "[Example 449, N^2-methyl-N^1-{(3aS,4R,6aR)-2-[4-(trifluoromethyl)benzyl]octahydrocyclopenta[c]pyrrol-4-yl}-L-leucinamide]", "pIC50": 5.39}, {"smiles": "CN[C@H](C(=O)N[C@H]1CC[C@@H]2CN(S(=O)(=O)c3ccc(C(F)(F)F)cc3)C[C@@H]21)C(C)C", "note": "[Example 451, N^2-methyl-N^1-((3aR,4S,6aS)-2-{[4-(trifluoromethyl)phenyl]sulfonyl}octahydrocyclopenta[c]pyrrol-4-yl)-L-valinamide]", "pIC50": 6.10}, {"smiles": "CN[C@H](C(=O)N[C@H]1CC[C@@H]2CN(S(=O)(=O)c3ccc(F)cc3)C[C@@H]21)C(C)C", "note": "[Example 452, N^1-{(3aR,4S,6aS)-2-[(4-fluorophenyl)sulfonyl]octahydrocyclopenta[c]pyrrol-4-yl}-N^2-methyl-L-valinamide]", "pIC50": 5.04}, {"smiles": "CC(C)(C)C[C@H](N)C(=O)N[C@H]1CC[C@@H]2CN(S(=O)(=O)c3ccc(F)cc3)C[C@@H]21", "note": "[Example 453, N^1-{(3aR,4S,6aS)-2-[(4-fluorophenyl)sulfonyl]octahydrocyclopenta[c]pyrrol-4-yl}-4-methyl-L-leucinamide]", "pIC50": 5.37}, {"smiles": "CCCC[C@H](NC)C(=O)N[C@H]1CC[C@@H]2CN(S(=O)(=O)c3ccc(F)cc3)C[C@@H]21", "note": "[Example 454, N^1-{(3aR,4S,6aS)-2-[(4-fluorophenyl)sulfonyl]octahydrocyclopenta[c]pyrrol-4-yl}-N^2-methyl-L-norleucinamide]", "pIC50": 5.69}, {"smiles": "CN[C@@H](CC(C)C)C(=O)N[C@H]1CC[C@@H]2CN(S(=O)(=O)c3ccc(F)cc3)C[C@@H]21", "note": "[Example 455, N^1-{(3aR,4S,6aS)-2-[(4-fluorophenyl)sulfonyl]octahydrocyclopenta[c]pyrrol-4-yl}-N^2-methyl-L-leucinamide]", "pIC50": 5.52}, {"smiles": "CCC[C@H](NC)C(=O)N[C@H]1CC[C@H]2CN(S(=O)(=O)c3ccc(C(F)(F)F)cc3)C[C@H]21", "note": "[Example 456, N^2-methyl-N^1-((3aS,4S,6aR)-2-{[4-(trifluoromethyl)phenyl]sulfonyl}octahydrocyclopenta[c]pyrrol-4-yl)-L-norvalinamide]", "pIC50": 5.27}]}]}
